The test system of assay [1] is ALPK1-dependent NFκB reporter gene activation. Put plainly: NFκB gene reporter alkaline phosphatase assay in HEK293 G9 cells. Format: cell-based. Particulars: Homo sapiens; HEK293 G9 cells stimulated with D-glycero-D-manno-6-fluoro-heptose-1β-S-ADP. As for the experimental part:
An alkaline phosphatase reporter assay system was used to measure inhibition of ALPK1-dependent NFκB reporter gene activation. Briefly, HEK293 cells stably expressing an NF-kB reporter (referred to herein as “G9 cells”) were maintained in DMEM as described above. For the assay, cells were seeded into 96-well plates at a density of 10,000 cells/well in Freestyle™ 293 Expression Medium (ThermoFisher), and allowed to attach overnight. Cells were pretreated with serially diluted compounds for 30 min and then stimulated with D-glycero-D-manno-6-fluoro-heptose-1β-S-ADP. […] NFkB gene activation was detected using the chromogenic substrate, para-nitrophenyl phosphate (pNPP) according to the manufacturer's protocols (pNPP Phosphatase Assay, Beyotime Biotechnology).

The next assay has as its target ALPK1 (Homo sapiens (Human), UniProt Q96QP1). Description: ALPK1 in vitro kinase assay (HTRF, TIFA phosphorylation). The assay is classed as biochemical. Particulars: ADP-Heptose activated ALPK1. As to the method:
ALPK1 kinase activity was measured in an in vitro assay using ADP-Heptose as the ALPK1 ligand and activator of its kinase activity and TIFA protein as the ALPK1 phosphorylation substrate. Since phosphorylated TIFA proteins oligomerize, Homogeneous Time-Resolved Fluorescence (HTRF) was used to measure protein:protein interaction between HA-tagged TIFA proteins as an indicator of TIFA phosphorylation.
In brief, dose-response studies were performed with HEK293 cells cultured in Dulbecco's Modified Eagle Medium (DMEM) supplemented 10% fetal bovine serum (FBS, Hyclone™) containing antibiotics (pen/strep, G418) in 384-well assay plates. Each well contained 0.1 mg TIFA, ALPK1 (2 nM final concentration in reaction mixture) and kinase buffer (100 mM of HEPES pH 7.4, 4 mM DTT, 40 mM MgCl2, 20 mM of β-Glycerol phosphate disodium salt, 0.4 mM of Na3VO4, 0.16 mg/mL). Titrations of the test compounds were prepared in dimethylsulphoxide (DMSO). The reaction was initiated by addition of ATP and ADP-Heptose.
For HTRF, samples were incubated with a Tb cryptate-labeled anti-HA antibody for capturing HA-tagged proteins according to the manufacturer's instructions (PerkinElmer™, CisBio™) and the fluorescence signal was quantified (Tecan Infinite F NANO+). HTRF signals were calculated as the HTRF ratio (ratio of fluorescence measured at 665 nm and 620 nm)×104 (thereby using the signal at 620 nm as an internal standard).
IC50 values were determined using 3- or 4-parameter logistic equation using GraphPad Prism version 6.00. The reference compound, A027, was used as a positive control for each plate.

The results in this text go back to US20240116885A1, “BENZOTHIAZOLE AND QUINOLINE DERIVATIVES AND THEIR USE” (Shanghai Yao Yuan Biotechnology Co., Ltd., priority 2020, published 2024).

SMILES strings stand for the structures.

ALPK1, sequence (Q96QP1 whole entry): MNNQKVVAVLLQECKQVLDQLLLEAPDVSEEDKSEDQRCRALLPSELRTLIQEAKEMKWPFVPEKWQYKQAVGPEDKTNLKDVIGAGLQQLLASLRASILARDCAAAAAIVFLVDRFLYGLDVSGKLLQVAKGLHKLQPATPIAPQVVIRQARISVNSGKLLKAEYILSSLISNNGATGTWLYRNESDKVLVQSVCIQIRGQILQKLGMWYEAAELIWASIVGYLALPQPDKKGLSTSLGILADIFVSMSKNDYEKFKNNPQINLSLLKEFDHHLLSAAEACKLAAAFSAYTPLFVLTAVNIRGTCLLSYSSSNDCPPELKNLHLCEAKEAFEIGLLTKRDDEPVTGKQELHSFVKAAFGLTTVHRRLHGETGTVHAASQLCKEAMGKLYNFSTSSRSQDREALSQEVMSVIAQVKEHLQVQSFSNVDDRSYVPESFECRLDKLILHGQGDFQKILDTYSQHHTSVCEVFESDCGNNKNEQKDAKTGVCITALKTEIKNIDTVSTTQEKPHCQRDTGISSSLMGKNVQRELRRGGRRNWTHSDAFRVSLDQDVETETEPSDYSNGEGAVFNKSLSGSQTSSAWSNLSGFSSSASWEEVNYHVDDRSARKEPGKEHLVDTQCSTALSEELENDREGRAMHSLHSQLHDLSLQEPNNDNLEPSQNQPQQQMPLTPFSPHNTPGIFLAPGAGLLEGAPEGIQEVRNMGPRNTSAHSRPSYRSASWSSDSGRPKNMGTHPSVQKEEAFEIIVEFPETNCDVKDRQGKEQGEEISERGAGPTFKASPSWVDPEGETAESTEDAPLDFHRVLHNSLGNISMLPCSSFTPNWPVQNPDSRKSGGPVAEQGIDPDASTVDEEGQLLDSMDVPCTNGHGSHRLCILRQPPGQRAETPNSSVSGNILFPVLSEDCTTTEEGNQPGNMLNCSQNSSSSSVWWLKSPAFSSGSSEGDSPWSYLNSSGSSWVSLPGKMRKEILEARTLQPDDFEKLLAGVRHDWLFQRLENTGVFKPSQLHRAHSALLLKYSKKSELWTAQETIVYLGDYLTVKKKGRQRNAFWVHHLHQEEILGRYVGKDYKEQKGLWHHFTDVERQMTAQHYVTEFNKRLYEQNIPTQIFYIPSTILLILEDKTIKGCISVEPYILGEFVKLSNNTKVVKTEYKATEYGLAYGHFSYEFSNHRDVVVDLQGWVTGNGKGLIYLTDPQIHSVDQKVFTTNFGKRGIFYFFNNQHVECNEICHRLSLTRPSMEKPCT

Consider `O=C(Nc1nc2c(Br)cccc2s1)c1c(F)cc(CN2CCNCC2)cc1F` [Compound T020, N-(4-bromobenzo[d]thiazol-2-yl)-2,6-difluoro-4-(piperazin-1-ylmethyl)benzamide], for which the IC50 in assay [1] worked out at 1570 nM; against ALPK1, 100 nM.

On to `COc1cccc2sc(NC(=O)c3c(F)cc(N4CCC(O)C4)cc3F)nc12` (stereo not shown) [Compound T027, 2,6-difluoro-4-(3-hydroxypyrrolidin-1-yl)-N-(4-methoxybenzo[d]thiazol-2-yl)benzamide], for which the values for the IC50 (in assay [1]; against ALPK1) were 3650 nM and 1170 nM, respectively.

Turning to `C#Cc1cccc2sc(NC(=O)c3c(C)cc(N4CCNCC4)cc3F)nc12` [Compound T050, N-(4-ethynylbenzo[d]thiazol-2-yl)-2-fluoro-6-methyl-4-(piperazin-1-yl)benzamide], the IC50 in assay [1] was 960 nM; at ALPK1 it was 98 nM.

For `COc1cc(Cl)cc2sc(NC(=O)c3c(F)cc(N4CCNCC4)cc3F)nc12` [Compound T043, N-(6-chloro-4-methoxybenzo[d]thiazol-2-yl)-2,6-difluoro-4-(piperazin-1-yl)benzamide], the 50% inhibitory concentration (IC50) in assay [1] came out at 3980 nM; against ALPK1 it was 401 nM.

`C#Cc1cccc2sc(NC(=O)c3c(F)cc(N4CC[C@H](N)C4)cc3F)nc12` [Compound T062, (S)-4-(3-aminopyrrolidin-1-yl)-N-(4-ethynylbenzo[d]thiazol-2-yl)-2,6-difluorobenzamide]: the IC50 in assay [1] stood at 880 nM; at ALPK1, 89 nM.

In the case of `C#Cc1cccc2sc(NC(=O)c3c(F)cc(N4CCNCC4C(C)C)cc3F)nc12` (stereo not shown) [Compound T051, N-(4-ethynylbenzo[d]thiazol-2-yl)-2,6-difluoro-4-(2-isopropylpiperazin-1-yl)benzamide], the IC50 worked out at 1590 nM in assay [1] and 56 nM against ALPK1.

Take `COc1cccc2sc(NC(=O)c3c(Cl)cc(N4CCNCC4)cc3Cl)nc12` [Compound T008, 2,6-dichloro-N-(4-methoxybenzo[d]thiazol-2-yl)-4-(piperazin-1-yl)benzamide]: the IC50 in assay [1] is 1950 nM; against ALPK1, 57 nM.

As for `COc1cccc2ccc(NC(=O)c3c(F)ccc(CN4CCNCC4)c3F)nc12` [Compound Q004, 2,6-difluoro-N-(8-methoxyquinolin-2-yl)-3-(piperazin-1-ylmethyl)benzamide], the IC50 in assay [1] is 4300 nM; at ALPK1 it was 33 nM.

As to `COc1cccc2sc(NC(=O)c3c(F)cc(N4CC5CC(C4)N5)cc3F)nc12` [Compound T001, 4-(3,6-diazabicyclo[3.1.1]heptan-3-yl)-2,6-difluoro-N-(4-methoxybenzo[d]thiazol-2-yl)benzamide], the IC50 is 1310 nM in assay [1] and 95 nM against ALPK1.

With `O=C(Nc1nc2c(C3CC3)cccc2s1)c1c(F)cccc1F` [Compound T012, N-(4-cyclopropylbenzo[d]thiazol-2-yl)-2,6-difluorobenzamide], the IC50 in assay [1] came to 5950 nM; against ALPK1, 970 nM.

For `O=C(Nc1nc2c(Br)cccc2s1)c1c(F)cc(CCN2CCNCC2)cc1F` [Compound T021, N-(4-bromobenzo[d]thiazol-2-yl)-2,6-difluoro-4-(2-(piperazin-1-yl)ethyl)benzamide], the results for the IC50 (in assay [1]; against ALPK1) were 1200 nM and 148 nM, respectively.

Turning to `COc1cccc2ncc(NC(=O)c3c(F)cc(N4CCNCC4)cc3F)nc12` [Compound Q009, 2,6-difluoro-N-(8-methoxyquinoxalin-2-yl)-4-(piperazin-1-yl)benzamide], the IC50 in assay [1] was 3720 nM; against ALPK1, 178 nM.

On to `C#Cc1cccc2sc(NC(=O)c3c(F)cc(N4CCNC[C@H]4C)cc3F)nc12` [Compound T061, (R)-N-(4-ethynylbenzo[d]thiazol-2-yl)-2,6-difluoro-4-(2-methylpiperazin-1-yl)benzamide], for which the IC50 in assay [1] is 300 nM; against ALPK1, 30 nM.

As for `COc1cccc2c(C)cc(NC(=O)c3c(F)cc(N4CCNCC4)cc3F)nc12` [Compound Q008, 2,6-difluoro-N-(8-methoxy-4-methylquinolin-2-yl)-4-(piperazin-1-yl)benzamide], the IC50 in assay [1] turned out to be 2920 nM; on ALPK1, 149 nM.

With `COc1cccc2ccc(NC(=O)c3c(F)cc(N4CCC(O)CC4)cc3F)nc12` [Compound Q003, 2,6-difluoro-4-(4-hydroxypiperidin-1-yl)-N-(8-methoxyquinolin-2-yl)benzamide], the IC50 in assay [1] stood at 2970 nM; against ALPK1, 369 nM.

Consider `C#Cc1cccc2sc(NC(=O)c3c(Cl)cc(N4CCNCC4)cc3Cl)nc12` [Compound T048, 2,6-dichloro-N-(4-ethynylbenzo[d]thiazol-2-yl)-4-(piperazin-1-yl)benzamide], for which the IC50 in assay [1] was 7130 nM; at ALPK1, 9 nM.

On to `COc1cccc2ccc(NC(=O)c3c(F)ccc(N4CCNCC4)c3F)nc12` [Compound Q005, 2,6-difluoro-N-(8-methoxyquinolin-2-yl)-3-(piperazin-1-yl)benzamide], for which the values for the IC50 (in assay [1]; at ALPK1) were 1370 nM and 258 nM, respectively.

As for `COc1cc(F)cc2sc(NC(=O)c3c(F)cc(N4CCNCC4)cc3F)nc12` [Compound T030, 2,6-difluoro-N-(6-fluoro-4-methoxybenzo[d]thiazol-2-yl)-4-(piperazin-1-yl)benzamide], the IC50 in assay [1] turned out to be 2220 nM; at ALPK1, 318 nM.

Turning to `C#Cc1cccc2sc(NC(=O)c3c(F)cc(N4CCNCC4CC)cc3F)nc12` (stereo not shown) [Compound T052, 4-(2-ethylpiperazin-1-yl)-N-(4-ethynylbenzo[d]thiazol-2-yl)-2,6-difluorobenzamide], the IC50 in assay [1] worked out at 1320 nM; against ALPK1, 58 nM.

Turning to `CC#Cc1cccc2sc(NC(=O)c3c(F)cc(N4CCNCC4)cc3F)nc12` [Compound T049, 2,6-difluoro-4-(piperazin-1-yl)-N-(4-(prop-1-yn-1-yl)benzo[d]thiazol-2-yl)benzamide], the values for the IC50 (in assay [1]; against ALPK1) were 2100 nM and 43 nM, respectively.

As for `COc1cccc2sc(NC(=O)c3c(F)cc(OCCO)cc3F)nc12` [Compound T029, 2,6-difluoro-4-(2-hydroxyethoxy)-N-(4-methoxybenzo[d]thiazol-2-yl)benzamide], the IC50 in assay [1] was 2990 nM; against ALPK1, 560 nM.

For the compound `COc1cccc2sc(NC(=O)c3c(F)cc(N4CCOCC4)cc3F)nc12` [Compound T022, 2,6-difluoro-N-(4-methoxybenzo[d]thiazol-2-yl)-4-morpholinobenzamide], the IC50 in assay [1] was 2010 nM; on ALPK1, 295 nM.

On to `COc1cccc2sc(NC(=O)c3c(F)cc(N4CCNCC4)cc3Cl)nc12` [Compound T010, 2-chloro-6-fluoro-N-(4-methoxybenzo[d]thiazol-2-yl)-4-(piperazin-1-yl)benzamide], for which the IC50 in assay [1] is 1640 nM; at ALPK1, 49 nM.

Take `O=C(Nc1nc2c(Cl)cccc2s1)c1c(F)cc(N2CCNCC2)cc1F` [Compound T046, N-(4-chlorobenzo[d]thiazol-2-yl)-2,6-difluoro-4-(piperazin-1-yl)benzamide]: the IC50 in assay [1] turned out to be 1320 nM; on ALPK1, 56 nM.

Regarding `CCN1CCN(c2cc(F)c(C(=O)Nc3nc4c(OC)cccc4s3)c(F)c2)CC1` [Compound T004, 4-(4-ethylpiperazin-1-yl)-2,6-difluoro-N-(4-methoxybenzo[d]thiazol-2-yl)benzamide], the values for the IC50 (in assay [1]; against ALPK1) were 1980 nM and 131 nM, respectively.

Regarding `COc1cccc2sc(NC(=O)c3c(F)cc(NCCO)cc3F)nc12` [Compound T023, 2,6-difluoro-4-((2-hydroxyethyl)amino)-N-(4-methoxybenzo[d]thiazol-2-yl)benzamide], the IC50 in assay [1] stood at 4300 nM; against ALPK1, 289 nM.

As for `CCCN1CCN(c2cc(F)c(C(=O)Nc3nc4c(OC)cccc4s3)c(F)c2)CC1` [Compound T005, 2,6-difluoro-N-(4-methoxybenzo[d]thiazol-2-yl)-4-(4-propylpiperazin-1-yl)benzamide], the IC50 was found to be 2420 nM in assay [1] and 81 nM against ALPK1.

For the compound `O=C(Nc1nc2c(O)cccc2s1)c1c(F)cc(N2CCNCC2)cc1F` [Compound T045, 2,6-difluoro-N-(4-hydroxybenzo[d]thiazol-2-yl)-4-(piperazin-1-yl)benzamide], the figures for the IC50 (in assay [1]; against ALPK1) were 4150 nM and 1650 nM, respectively.

With `COc1cccc2sc(NC(=O)c3c(F)cc(C(=O)N4CCNCC4)cc3F)nc12` [Compound T040, 2,6-difluoro-N-(4-methoxybenzo[d]thiazol-2-yl)-4-(piperazine-1-carbonyl)benzamide], the IC50 is 6330 nM in assay [1] and 341 nM against ALPK1.
